{"source": "patent US20030195246A1", "about": "“Seamless soft capsule preparations containing dihydrobenzofuran derivatives” (priority 2000, published 2003)", "assay": "BO-653 stability test in different fats and oils (accelerated test, HPLC residue rate)", "format": "physicochemical", "settings": "80° C. for 17 hours", "description": "A test was conducted on the effect of oxygen on decomposition of BO-653 (4,6-ditert-butyl-2,2-di-n-pentyl-5-hydroxy-2,3-dihydrobenzofuran) and its stability in various fats and oils. There were prepared samples consisting of 70 mg solutions of BO-653 in different fats and oils (soybean oil (product of Wako Pure Chemicals Industries, Ltd.), olive oil (product of Wako Pure Chemicals Industries, Ltd.), MCT (ODO-C: product of The Nisshin oil Mills, Ltd.), tricaprilin (product of Wako Pure Chemicals Industries, Ltd.) and linoleic acid (product of NOF Corp.)), each in a proportion of 50 wt % in a 5 cc glass vial, as well as a sample of 35 mg BO-653 in a 5 cc glass vial. An accelerated test was conducted at 80° C. for 17 hours, in a case with sealing of the head space of each sample vial after argon substitution and a case with sealing without argon substitution, and the residue rate was determined by HPLC measurement of the BO-653 content after the test."}
{"smiles": "CCCCCC1(CCCCC)Cc2c(cc(C(C)(C)C)c(O)c2C(C)(C)C)O1", "note": "[BO-653, 4,6-ditert-butyl-2,2-di-n-pentyl-5-hydroxy-2,3-dihydrobenzofuran]", "values": [{"measurement": "stability of BO-653", "setting": "no argon substitution (presence of oxygen), 50 wt % in soybean oil, compared with other fats and oils", "result": "highest stability"}, {"measurement": "residue rate", "setting": "no argon substitution (presence of oxygen), all of the samples", "result": "lower with no argon substitution than with argon substitution"}, {"measurement": "residue rate", "setting": "with argon substitution (absence of oxygen), any of the media, including BO-653 alone", "result": "virtually no reduction in residue rate"}]}
